Test results reported in paper PMC5114273, “Activity of Scorpion Venom-Derived Antifungal Peptides against Planktonic Cells of Candida spp. and Cryptococcus neoformans and Candida albicans Biofilms” (Frontiers in Microbiology, 2016).
Values after ≈ are worked out from the molar mass of the structure shown. Ends that are not written are not given here.

Experiments:
C. albicans (SC5314) = test: microbe, parasite or virus in culture; assay type: cell-based, Candida albicans; conditions: Candida albicans, SC5314; RPMI-1640 pH 7.0, 2 × 10^3 cells/mL, 37°C, 24 h; complete inhibition of visible growth; at least three experiments; read-out: Minimum inhibitory concentration, C. albicans (SC5314)
From the text: (§1) Candida albicans strain SC 5314 (ATCC MYA-2876) was provided by Dr. Joshua Nosanchuk (New York, NY, USA). C. glabrata ATCC 90030, C. parapsilosis ATCC 22019, and C. tropicalis ATCC 750 were provided by Dr. Érika Kioshima (Universidade Estadual de Maringá, Paraná, Brazil). C. neoformans var. grubii strain H99 (serotype A, ATCC 208821) was provided by Dr. John Perfect (Durham, NC, USA). C. neoformans var. neoformans B3501 (serotype D, ATCC 34873) was obtained from ATCC (Manassas, VA, USA). All strains were stored as frozen stocks in 35% glycerol at -80°C. Before each experiment, all Candida spp. strains were grown in Sabouraud’s dextrose broth overnight at 30°C with agitation. C. neoformans strains were grown in the same conditions for 24 h. Fungal cells were collected by centrifugation, washed three times in phosphate buffered saline (PBS) (137 mM NaCl, 2.7 mM KCl, 10 mM Na2HPO4, 2 mM KH2PO4) and inoculated in Roswell Park Memorial Institute (RPMI) 1640 medium supplemented with L-glutamine and buffered to pH 7.0 with 165 mM 3-(N-morpholino)propanesulfonic acid for experiments described below.
(§2) In vitro antifungal assays were performed according to broth microdilution susceptibility test from Clinical and Laboratory Standards Institute (CLSI) M27-A3 guidelines with some modifications. Briefly, twofold serial dilutions of each peptide were prepared in 96-well polystyrene microplates to a final volume of 50 μL. Amphotericin B (Amp B; A2942, Sigma-Aldrich), a known antifungal drug, was used as a positive control. Final concentrations of each peptide and Amp B ranged from 100 to 0.78 μM and 16 to 0.03 μg/mL, respectively, except in tests with C. glabrata and C. parapsilosis, where the final peptide concentration ranged from 400 to 0.78 μM. In each plate, wells were included without peptide as a growth control. Then, 50 μL of the adjusted inoculum in RPMI-1640 medium were added to each well to a final concentration of 2 × 10^3 cells/mL for Candida spp. and 10^4 cells/mL for C. neoformans strains. The plates were incubated at 37°C for 24 and 48 h, respectively. The strains of C. neoformans were also incubated with shaking (200 rpm). […] The experiments were performed at least three times on separate dates.

[1] = tested on: C. albicans SC 5314 biofilm, initial cell adherence; test: C. albicans biofilm, initial adherence (XTT reduction); assay type: cell-based, Candida albicans; conditions: at 0.25 μg/mL
Procedure: (§3) The effects of the peptides NDBP-4.23, ToAP1, ToAP2, and NDBP-5.7 on C. albicans biofilms were analyzed according to the protocol described by [Pierce et al. (2008)]. Briefly, C. albicans SC 5314 (10^6 cells/mL) was grown on 96-well polystyrene microplates and 4 h after seeding the peptides or Amp B were added to assess their effects on the first step of biofilm formation, the initial cell adherence. After 24 h of treatment, biofilm formation was measured by the metabolic assay based on the reduction of 2,3-bis-(2-methoxy-4-nitro-5-sulfophenyl)-2H-tetrazolium-5-carboxanilide (XTT). For the purpose of investigating effects of peptides on mature biofilms, the Candida cells were allowed to grow for 24 h prior to addition of the peptides or Amp B and the XTT assay was performed in the same way. All results were analyzed for statistical significance using analysis of variance (ANOVA) followed by Tukey post-test using GraphPad Prism 6 and expressed in terms of biofilm viability as XTT-readings percentage normalized by the control groups. Each compound was tested in triplicate and the experiments were performed at least twice on separate dates.

[2] = tested on: C. albicans SC 5314 mature biofilm; test: C. albicans mature biofilm (XTT reduction); assay type: cell-based, Candida albicans; conditions: at 2 μg/mL
Procedure: as §3

C. glabrata (ATCC 90030) = test: microbe, parasite or virus in culture; assay type: cell-based, Candida glabrata; conditions: Nakaseomyces glabratus, ATCC90030; RPMI-1640 pH 7.0, 2 × 10^3 cells/mL, 37°C, 24 h; peptides 400 to 0.78 μM; at least three experiments; read-out: Minimum inhibitory concentration, C. glabrata (ATCC 90030)
From the text: as §1, §2

[3] = tested on: C. neoformans (H99 serotype A); test: microbe, parasite or virus in culture; assay type: cell-based, Cryptococcus neoformans var. grubii; conditions: Cryptococcus neoformans; RPMI-1640 pH 7.0, 10^4 cells/mL, 37°C, 48 h, shaking 200 rpm; at least three experiments; read-out: Minimum inhibitory concentration, C. neoformans (H99 serotype A)
From the text: as §1, §2

[4] = tested on: C. neoformans (B3501 serotype D); test: microbe, parasite or virus in culture; assay type: cell-based, Cryptococcus neoformans var. neoformans; conditions: Cryptococcus neoformans; RPMI-1640 pH 7.0, 10^4 cells/mL, 37°C, 48 h, shaking 200 rpm; at least three experiments; read-out: Minimum inhibitory concentration, C. neoformans (B3501 serotype D)
From the text: as §1, §2

[5] = tested on: C. parapsilosis (ATCC 22019); test: microbe, parasite or virus in culture; assay type: cell-based, Candida parapsilosis; conditions: Lodderomyces parapsilosis, ATCC22019; RPMI-1640 pH 7.0, 2 × 10^3 cells/mL, 37°C, 24 h; peptides 400 to 0.78 μM; at least three experiments; read-out: Minimum inhibitory concentration, C. parapsilosis (ATCC 22019)
From the text: as §1, §2

[6] = tested on: C. albicans SC5314 biofilm; test: Sessile MIC50 of C. albicans SC5314 biofilm (XTT reduction, supplement); assay type: cell-based, Candida albicans
Procedure: Figure 2R. Difference between supernatant volume used for OD 490nm reading (50 and 80µL) using XTT
reduce assay. The experiments were performed four times independently. Statistical analyses: two-way
ANOVA test and Turkey pos-test (**** P ≤ 0,0001; *** P ≤ 0,001; ** P ≤ 0,01; * P ≤ 0,05).
Table 1R. Sessile Minimum Inhibitory Concentration 50% (SMIC50) of C. albicans SC5314
biofilm in response to Amphotericin B serially diluted from 0,01562 to 16 µg/mL.

C. tropicalis (ATCC 750) = test: microbe, parasite or virus in culture; assay type: cell-based, Candida tropicalis; conditions: Candida tropicalis, ATCC750; RPMI-1640 pH 7.0, 2 × 10^3 cells/mL, 37°C, 24 h; complete inhibition of visible growth; at least three experiments; read-out: Minimum inhibitory concentration, C. tropicalis (ATCC 750)
From the text: as §1, §2

[7] = tested on: peritoneal macrophages of BALB/c mice; test: Cytotoxic test using peritoneal macrophages (LDH release); assay type: cell-based, mouse; conditions: 24 h, threshold of acceptable cytotoxicity 50% viability, three independent experiments
Procedure: BALB/c mice were injected with thioglycolate 72 h before peritoneal macrophages were harvested. They were diluted to a concentration of 10^6 cell/mL in RPMI-1640 supplemented with penicillin/streptomycin (100 U/mL, 100 µg/mL), 2 mM L-glutamine, 2 mM non-essential amino acids, 1 mM sodium pyruvate (all reagents from Sigma-Aldrich, St Louis, MO, USA) and 10% fetal bovine serum (FBS), and incubated in 96-well polystyrene microplates at 37°C, 5% CO2 for 24 h. The peptides were added then and cells were further incubated for 24 h as described previously ([Cruz et al., 2005]). Three independent experiments were performed. Cytotoxic activity was evaluated by the release of cytoplasmic enzyme lactate dehydrogenase due to cell lysis using the Cytotox kit (Promega). Briefly, at the end of the incubation period, supernatants were collected, the adhered cells were washed and the toxicity was determined according to the manufacturer’s protocol. The procedures were approved by the Ethics Committee on Animal Research of Institute of Biology (UnBDOC 52657/2011)/University of Brasília (UnB).

[8] = Stability assays of native and modified peptide; assay type: physicochemical; conditions: non-modified versus modified peptide

Row | Molecule | MIC (C. albicans (SC5314)) [µM] | Reduction in biofilm viability, initial adherence [1] | Reduction in biofilm viability, three-dimensional architecture [2] | MIC (C. glabrata (ATCC 90030)) [µM] | MIC [3] [µM] | MIC [4] [µM] | MIC [5] [µM] | SMIC50 ([6]; 4h biofilm, 50 µl supernatant read at OD 490nm) | SMIC50 ([6]; 4h biofilm, 80 µl supernatant read at OD 490nm) | SMIC50 ([6]; 24h biofilm, 50 µl supernatant read at OD 490nm) | SMIC50 ([6]; 24h biofilm, 80 µl supernatant read at OD 490nm) | SMIC50 ([6]; 48h biofilm, 50 µl supernatant read at OD 490nm) | SMIC50 ([6]; 48h biofilm, 80 µl supernatant read at OD 490nm) | MIC (C. tropicalis (ATCC 750)) [µM] | Concentrations showing low cytotoxicity [7] | Stability compared with the modified peptide [8]
1 | C[C@@H]1[C@H](O)[C@@H](C)/C=C/C=C/C=C/C=C/C=C/C=C/C=C/[C@H](O[C@@H]2O[C@H](C)[C@@H](O)[C@H](N)[C@@H]2O)C[C@@H]2O[C@](O)(C[C@@H](O)C[C@@H](O)[C@H](O)CC[C@@H](O)C[C@@H](O)CC(=O)O[C@H]1C)C[C@H](O)[C@H]2C(=O)O [Amp B, Amphotericin B] | 1.08 (≈ 0.998 µg/mL) | at least 80% | at least 80% | 1.08 (≈ 0.998 µg/mL) | 0.27 (≈ 0.25 µg/mL) | 0.135 (≈ 0.125 µg/mL) | 2.16 (≈ 2 µg/mL) | 0,08420 ug/mL | 0,06812 ug/mL | 0,1919 ug/mL | 0,1732 ug/mL | 0,2857 ug/mL | 0,2424 ug/mL | 2.16 (≈ 2 µg/mL) |  | 
2 | FFGTLFKLGSKLIPGVMKLFSKKKER [ToAP2] |  |  |  |  |  |  |  |  |  |  |  |  |  |  | below 6.25 μM | lower stability
